In one data set the test system is MCF10A-5E cells. The data set can be described thus: Multiacini formation in 3D culture of MCF10A-5E cells. It is filed as cell-based. To be noted: shRUNX1 or control cells, 3D culture 10-11 days, compared to carrier control or Al-4-88. The source says: CBFβ inhibitors altered acinar morphogenesis of the basal-like (triple negative) breast epithelial cells and blocked survival of basal-like breast cancer cells in 3D organotypic culture. To evaluate whether CBFβ inhibition would influence the multicellular organization of basal-like breast epithelia, 3D culture of MCF10A-5E cells was used. Knockdown of RUNX1 in these cells delayed proliferation arrest and promoted the formation of nonspherical acini, indicating a role for RUNX1 during morphogenesis.
The multiacini resulting from CBFβ inhibition were not radially symmetric, thereby arguing against a general defect in cell polarity or proliferation arrest. Instead, the inhibitors appeared to be initiating a nascent branching program that is reminiscent of when TGFβ-family signaling is impaired.
FIG. 9A: MCF10A-5E cells stably expressing shRUNX1 or shGFP control were grown in 3D culture for 10-11 days with the indicated compounds and imaged by Brightfield microscopy. The total number of multiacini per chamber was counted and scaled to the shGFP DMSO control. Data are shown as the mean±SEM of eight independent cultures.

The subject of the next data set is H520 lung cancer cells. As to the kind of experiment: MTT growth assay, H520 cells. It is filed as cell-based. To be noted: H520, 10 μM, 72 hrs. On the procedure: (§1) Activity of Al-10-104 was tested using several lung cancer cell lines and one immortalized, non-transformed lung cell line. […] Data for the squamous cell carcinoma of the lung cell line H520 and the immortalized normal lung epithelial cell line BEAS-2B are shown in FIG. 10.
(§2) H520 cells were cultured in RPMI 1640 medium, supplemented with fetal bovine serum (10% final concentration), Hepes (1%), and sodium priruvate (1%). The MTT assay used 4×10^5/ml cells. BEAS-2B cells were cultured in DMEM medium with fetal bovine serum (10% final concentration). The MTT assay for the BEAS-2B cell line was performed using 3.5×10^5/ml cells.
(§3) Al-4-88 had no effect on either cell line.
Background: Formazan colour is commonly taken as a measure of viable cells.

Data set [1] in a line: Sedative effects and tolerability in mice after IP administration. To be noted: intraperitoneal (IP) injection. It is filed as in vivo. An excerpt: “NA” indicates not active. […] Reasoning that this effect depended on the ability of the compound to cross the blood brain barrier (BBB), compounds Al-12-126 and Al-14-91 have appended morpholine ring substituents to the 5 position of the pyridine ring to increase the polarity of the compounds and thereby limit BBB penetration.

A further data set has as its system lung cancer cell lines. The data set can be described thus: MTT growth assay, several lung cancer cell lines. It is filed as cell-based. On the procedure: as §1
Data set [2] concerns primary T-ALL patient samples. The data set can be described thus: Apoptosis of primary T-ALL patient samples. It is filed as cell-based, human.
Data set [3] concerns inducible Runx1 (iRx) ES cells. The data set can be described thus: Inducible Runx1 (iRx) ES cell differentiation system, FACS. It is filed as cell-based. As for the experimental part:
FIG. 3A is a schematic diagram representing the inducible Runx1 (iRx) ES cell differentiation system. ES cells were allowed to form embryoid bodies (EB) in IVD culture media and hemangioblast Flk1 positive cells were sorted and seeded into blast culture media. After 2 days, a second Flk1 sort was performed and Flk1 positive cells were cultured in hemogenic endothelium culture conditions. In the absence of doxycycline (−dox), Runx1 is absent and cells cannot progress from the HE1 stage of development. In the presence of doxycycline (+dox), Runx1 is expressed and differentiation progresses, resulting in the formation of CD41+ve/c-kit+ve floating progenitors.
FIG. 3C provides representative FACS histograms showing staining of the surface markers CD41 and c-kit in cells treated with the compounds and in the presence or absence of doxycycline, as indicated.
FIG. 3D provides representative FACS histograms showing staining of Annexin V and Propidium Iodide (PI) in cells treated with compounds Al-10-104 and Al-4-88 in the absence or presence of doxycycline, as indicated.

The test system of another data set is MLL-AF4 leukemia cells. As to the kind of experiment: Cell death of MLL-AF4 leukemia cells. It is filed as cell-based, human.
A short description of data set [4]: Aqueous solubility in 0.25% DMSO by NMR spectroscopy. It is filed as physicochemical. The settings on record: aqueous, kinetic from dmso stock; 0.25% DMSO, NMR spectroscopy; read-out: aqueous solubility. As for the experimental part:
Al-10-104, Al-12-126, and Al-14-91 were all soluble at concentrations above 100 μM. […] As the Runt domain is highly conserved among all three RUNX family members, we would expect to see similar effects on binding to RUNX2 or RUNX3. Therefore, the action of the inhibitors will likely affect the activity of all three RUNX family members.

The subject of data set [5] is OVCAR4 ovarian cancer cells. The data set can be described thus: CellTiter-Glo viability assay, OVCAR4. The settings on record: Homo sapiens, OVCAR-4, OVCAR4, 72 hours. It is filed as cell-based. As for the experimental part:
(§4) OVCAR8 cells were grown in RPMI 1640 supplemented with 10% Fetal bovine serum and 1% antibiotics. OVCAR4 cells were grown in RPMI 1640 supplemented with 20% fetal bovine serum and 1% antibiotics. Cells growing at approximately 70% confluency were trypsinized and 2500 cells per well were re-plated in opaque bottomed 96-well plates.
(§5) 24 hours after plating, chemical compounds diluted in DMSO were mixed with cell growth media and added to cells. Compounds mixed with media were made at 10× concentration. Cells treated with compounds were incubated for 72 hours in a humidified incubator at 37° C. supplemented with 5% CO2. Percentage of cells viable after 72 hours was determined by CellTitler-Glo according to the manufacturer's instructions. Data analysis was performed using GraphPad 5.0.
(§6) In the graph, the ordinate represents % inhibition and the abscissa represents the log value of the concentration of the compound.

In data set [6] the test system is BEAS-2B normal lung cells. As to the kind of experiment: MTT growth assay, BEAS-2B cells. It is filed as cell-based. To be noted: 10 μM, 72 hrs. As for the experimental part:
as §1, §2, §3

The next data set relates to T-ALL cell lines. As to the kind of experiment: Apoptosis in T-ALL cell lines. It is filed as cell-based, human.
Data set [7] relates to OVCAR8 ovarian cancer cells. The data set can be described thus: CellTiter-Glo viability assay, OVCAR8. It is filed as cell-based. To be noted: Homo sapiens, OVCAR-8, OVCAR8, 72 hours. As for the experimental part: as §4, §5, §6
(ATP-based viability assays read luminescence as a measure of living cells.)

The next data set has as its system 11 leukemia cell lines. The data set can be described thus: Viability of a panel of 11 leukemia cell lines. It is filed as cell-based. To be noted: 48 hours of treatment. The source says:
Compounds Al-4-88, Al-4-57, Al-10-47, Al-10-104, and Al-14-91 were screened against a panel of 11 leukemia cell lines with varying genotypes.
The viability is represented as the percent DAPI negative cells relative to DMSO control. Each symbol/color in the graphs of FIG. 4 represent an individual cell line. The symbol represents the mean of independent replicates and the error bars represent the SEM. The table indicates the morphology, type of leukemia, and known mutations for each of the 11 cell lines.

The structures appear in SMILES notation. Some results are limits rather than exact numbers.

As for `COc1cccnc1-c1nc2cc(OC(F)(F)F)ccc2[nH]1` [Al-10-104], the “formation of multiacinar structures” value in the data set on MCF10A-5E cells is listed as “dramatic increase”. In addition, the “cell growth (MTT assay)” value in the data set on H520 lung cancer cells is reported as “inhibited almost as effectively as 1 μM staurosporine”; in [6] it was “no effect”. Also, the sedative effects result in [1] is “significant sedative effects that were lethal at high doses”. Further, the “growth inhibition (MTT assay)” value with lung cancer cell lines is on record as “growth inhibition”. Moreover, the apoptosis result (in [2]; in the data set on T-ALL cell lines) was “induced apoptosis” in each case. Further, the “percentage of cells expressing c-kit and CD41” value in [3] (10 μM, in the presence of doxycycline) is reported as “reduced”. In addition, in data set [3] (adherent cells, absence or presence of doxycycline), the “apoptosis (Annexin V and PI staining)” value is “apoptosis is not increased”. Besides, the cell death result in the data set with MLL-AF4 leukemia cells was “induced cell death”. In data set [4], the solubility is > 100 µM. Further, the IC50 in data set [5] was 5.86 µM; in data set [7], 4.84 µM. The “percent viability (DAPI negative cells relative to DMSO)” value in the data set with 11 leukemia cell lines was “significant inhibition of the majority of the cell lines”.

One may read the solubility as how much of the substance goes into solution per volume. The IC50 is the concentration needed to halve the response being measured. A lower IC50 goes with greater potency in that assay.

The record behind these values is patent US10562890B2, “Cancer therapeutics” (UNIVERSITY OF VIRGINIA PATENT FOUNDATION, priority 2014, dated 2020).
